Data taken from patent publication US20240083896A1, “Nitrogen Containing 2,3-Dihydroquinazolinone Compounds as Nav1.8 Inhibitors” (GlaxoSmithKline Intellectual Property Development Limited, priority 2020, published 2024).

Each compound was assayed against human Nav1.8 (Homo sapiens (Human), UniProt Q9Y5Y9) (assay: QPatch 48 HTX electrophysiology assay, half inactivation state voltage protocol (V1/2), HEK293-Nav1.8 cells). Conditions: HEK293 cells expressing human Nav1.8, human Navβ1 and human TREK1; V1/2 protocol, P2 current; IC50 in molar; average where more than one run.
Type: cell-based
Procedure: Human embryonic kidney 293 cells (HEK293) expressing human Nav1.8, human Navβ1 and human TREK1 (HEK293-Nav1.8) were grown at 37° C., 5% CO2 in 150 cm^2 flasks. HEK293-Nav1.8 were passaged every 2-3 days into T175 cell culture flasks when confluency reached 80-90%.
Pharmacological assessment of the compounds of the invention was performed using HEK293-Nav1.8 in combination with an assay developed on the QPatch 48 HTX electrophysiological system. HEK293-Nav1.8 were prepared on the day of use by removing culture media, washing in DPBS, adding Accutase (2 ml to cover the surface, aspirate 1 ml then 1.5 min at 37° C.) followed by addition of CHO-SFM II to stop the enzyme digestion and in order to obtain a suspension of 3×10^6 cell/mL.
Compound was prepared in an extracellular solution of the following composition: NaCl (145 mM), KCl (4 mM), CaCl2 (2 mM), MgCl2 (2 mM), HEPES (1 mM), Glucose (10 mM), pH 7.4 with NaOH Osmolality 300 mOsM/L. The intracellular solution was used of the following composition: CsF (115 mM), CsCl (20 mM), NaCl (5 mM), EGTA (10 mM), HEPES (10 mM), Sucrose (20 mM), pH 7.2 with CsOH Osmolality 310 mOsm/L.
Utilizing the voltage-clamp mode in the QPatch 48 HTX system a half inactivation state voltage protocol (V1/2) was used to determine pharmacological activity of compounds of the invention at Nav1.8 ion channels. A V1/2 protocol was utilized with the following voltage steps: a holding voltage of −100 mV was established followed by a 20 ms voltage step to 0 mV (P1), followed by an inactivating voltage step at −46 mV for 8 seconds, followed by a step to −100 mV for 20 ms, before a 20 ms step to 0 mV (P2) before returning to the holding voltage of −100 mV. This voltage protocol was repeated at a frequency of 0.07 Hz., current magnitude was quantified at the P2 step throughout the recording. Inhibition of the measured current amplitude with the compounds of the invention was analyzed by fitting a 4-8 point dose-response curve allowing determination of the fifty percent inhibition concentration (IC50). Within the QPatch HTX software, P2 current was normalized according to measurements made at baseline after compound and after positive reference compound and fit to the following equation: […]
To assess current run-down over the course of the experiment vehicle-only wells were utilized and the normalized current with vehicle-only (n.IVEH) was determined. To correct the compound response for run-down, the currents were corrected according the following formula: […]
Compounds of the invention were tested for activity against […]. Potency of the compounds of the invention is reported as a pIC50 value. The pIC50 value is the negative log of the IC50 value, wherein the IC50 value is the half maximal inhibitory concentration measured in molar (M). For compounds tested in more than one experimental run, the pIC50 value is reported as an average.

Sequence of human Nav1.8 (Q9Y5Y9 whole entry): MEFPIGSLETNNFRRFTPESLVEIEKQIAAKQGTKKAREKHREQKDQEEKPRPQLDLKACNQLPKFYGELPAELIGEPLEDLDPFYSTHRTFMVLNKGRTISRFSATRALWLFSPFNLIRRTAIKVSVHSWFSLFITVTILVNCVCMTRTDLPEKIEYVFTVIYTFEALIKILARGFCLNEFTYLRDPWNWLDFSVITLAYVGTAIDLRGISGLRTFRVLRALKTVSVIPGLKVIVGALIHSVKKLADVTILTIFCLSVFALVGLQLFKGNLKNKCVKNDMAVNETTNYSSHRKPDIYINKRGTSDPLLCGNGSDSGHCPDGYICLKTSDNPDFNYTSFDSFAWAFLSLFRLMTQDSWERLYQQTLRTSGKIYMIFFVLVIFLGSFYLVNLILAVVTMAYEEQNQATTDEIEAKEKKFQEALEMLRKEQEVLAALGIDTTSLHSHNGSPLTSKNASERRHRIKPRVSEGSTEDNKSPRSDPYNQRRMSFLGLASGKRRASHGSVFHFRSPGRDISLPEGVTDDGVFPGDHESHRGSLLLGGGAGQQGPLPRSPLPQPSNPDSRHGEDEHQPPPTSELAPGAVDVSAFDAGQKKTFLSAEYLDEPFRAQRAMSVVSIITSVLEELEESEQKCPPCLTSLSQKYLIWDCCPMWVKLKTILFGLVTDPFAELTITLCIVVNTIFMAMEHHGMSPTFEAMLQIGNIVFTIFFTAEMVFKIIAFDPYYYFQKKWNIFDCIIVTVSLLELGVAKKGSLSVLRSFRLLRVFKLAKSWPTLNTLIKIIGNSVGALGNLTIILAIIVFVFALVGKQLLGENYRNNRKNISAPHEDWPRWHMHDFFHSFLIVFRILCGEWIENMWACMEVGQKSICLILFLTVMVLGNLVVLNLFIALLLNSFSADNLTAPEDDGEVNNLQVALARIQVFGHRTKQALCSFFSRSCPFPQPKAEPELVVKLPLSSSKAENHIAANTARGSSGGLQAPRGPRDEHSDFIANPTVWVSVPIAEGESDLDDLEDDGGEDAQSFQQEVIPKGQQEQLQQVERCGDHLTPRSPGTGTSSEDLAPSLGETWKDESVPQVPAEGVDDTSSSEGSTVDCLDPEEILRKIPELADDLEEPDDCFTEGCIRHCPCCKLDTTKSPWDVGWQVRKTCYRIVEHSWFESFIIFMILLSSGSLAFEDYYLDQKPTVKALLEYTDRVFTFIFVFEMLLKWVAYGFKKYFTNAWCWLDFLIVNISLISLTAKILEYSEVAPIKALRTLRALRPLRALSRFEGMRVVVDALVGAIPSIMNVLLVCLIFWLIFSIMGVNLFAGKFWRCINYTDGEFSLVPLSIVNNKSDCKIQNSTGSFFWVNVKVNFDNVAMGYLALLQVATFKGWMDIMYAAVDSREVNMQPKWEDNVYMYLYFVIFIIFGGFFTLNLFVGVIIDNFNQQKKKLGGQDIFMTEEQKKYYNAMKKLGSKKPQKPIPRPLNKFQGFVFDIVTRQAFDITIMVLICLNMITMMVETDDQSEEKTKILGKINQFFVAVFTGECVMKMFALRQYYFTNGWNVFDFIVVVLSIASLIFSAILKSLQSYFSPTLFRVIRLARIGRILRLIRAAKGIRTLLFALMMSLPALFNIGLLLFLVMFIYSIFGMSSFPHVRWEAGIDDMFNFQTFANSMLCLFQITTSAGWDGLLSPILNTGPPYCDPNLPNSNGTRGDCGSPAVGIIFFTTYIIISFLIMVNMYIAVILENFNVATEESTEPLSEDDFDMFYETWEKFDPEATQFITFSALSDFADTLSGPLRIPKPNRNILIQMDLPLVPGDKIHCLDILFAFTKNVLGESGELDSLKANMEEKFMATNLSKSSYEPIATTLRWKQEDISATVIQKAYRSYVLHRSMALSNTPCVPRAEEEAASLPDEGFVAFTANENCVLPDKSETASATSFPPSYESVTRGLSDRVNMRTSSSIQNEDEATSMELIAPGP
Sequence of human Nav1.8 (Q07699 19-218 partner): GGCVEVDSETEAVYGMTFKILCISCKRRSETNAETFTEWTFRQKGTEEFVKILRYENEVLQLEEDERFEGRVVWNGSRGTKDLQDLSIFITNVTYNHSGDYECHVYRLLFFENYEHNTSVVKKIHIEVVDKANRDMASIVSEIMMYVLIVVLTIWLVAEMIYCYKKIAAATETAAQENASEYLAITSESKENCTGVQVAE

Structure (SMILES) | [Nav1.8] pIC50
Cc1cc(F)ccc1N1CN(c2cc(F)c(=O)[nH]c2C)C(=O)c2cc(C(F)(F)F)ncc21 [Example 11, 3-(5-Fluoro-2-methyl-6-oxo-1,6-dihydropyridin-3-yl)-1-(4-fluoro-2-methylphenyl)-6-(trifluoromethyl)-2,3-dihydropyrido[3,4-d]pyrimidin-4(1H)-one] | 6.5
Cc1cc(OC(F)(F)F)ccc1N1CN(c2ccc(=O)[nH]c2C)C(=O)c2cc(C(F)(F)F)ncc21 [Example 16, 1-(2-Methyl-4-(trifluoromethoxy)phenyl)-3-(2-methyl-6-oxo-1,6-dihydropyridin-3-yl)-6-(trifluoromethyl)-2,3-dihydropyrido[3,4-d]pyrimidin-4(1H)-one] | 7.9
Cc1cc(F)ccc1N1CN(c2ccc(=O)[nH]c2C)C(=O)c2cc(C#N)ncc21 [Example 22, 1-(4-Fluoro-2-methylphenyl)-3-(2-methyl-6-oxo-1,6-dihydropyridin-3-yl)-4-oxo-1,2,3,4-tetrahydropyrido[3,4-d]pyrimidine-6-carbonitrile] | 5.4
Cc1[nH]c(=O)ccc1N1CN(c2ccc(F)cc2C(C)C)c2cnc(C(F)(F)F)cc2C1=O [Example 5, 1-(4-Fluoro-2-isopropylphenyl)-3-(2-methyl-6-oxo-1,6-dihydropyridin-3-yl)-6-(trifluoromethyl)-2,3-dihydropyrido[3,4-d]pyrimidin-4(1H)-one] | 7.2
Cc1cc(F)ccc1N1CN(c2ccc(=O)[nH]c2C)C(=O)c2cnc(Cl)cc21 [Example 18, 7-Chloro-1-(4-fluoro-2-methylphenyl)-3-(2-methyl-6-oxo-1,6-dihydropyridin-3-yl)-2,3-dihydropyrido[4,3-d]pyrimidin-4(1H)-one] | 6.6
Cc1cc(F)ccc1N1CN(c2ccc(=O)[nH]c2C)C(=O)c2cc(C(F)(F)F)ncc21 [Example 6, 1-(4-Fluoro-2-methylphenyl)-3-(2-methyl-6-oxo-1,6-dihydropyridin-3-yl)-6-(trifluoromethyl)-2,3-dihydropyrido[3,4-d]pyrimidin-4(1H)-one] | 7
Cc1c[n+]([O-])ccc1N1CN(c2ccc(OC(F)(F)F)cc2C)c2cnc(C(F)(F)F)cc2C1=O [Example 23, 3-Methyl-4-(1-(2-methyl-4-(trifluoromethoxy)phenyl)-4-oxo-6-(trifluoromethyl)-1,4-dihydropyrido[3,4-d]pyrimidin-3(2H)-yl)pyridine 1-oxide] | 6.7
Cc1cc(F)ccc1N1CN(c2ccc(=O)[nH]c2C)C(=O)c2ncc(C(F)(F)F)cc21 [Example 1, 1-(4-Fluoro-2-methylphenyl)-3-(2-methyl-6-oxo-1,6-dihydropyridin-3-yl)-7-(trifluoromethyl)-2,3-dihydropyrido[3,2-d]pyrimidin-4(1H)-one] | 5.9
Cc1cc(F)ccc1N1CN(c2ccc(=O)[nH]c2C)C(=O)c2ncc(C(F)(F)F)nc21 [Example 7, 1-(4-Fluoro-2-methylphenyl)-3-(2-methyl-6-oxo-1,6-dihydropyridin-3-yl)-7-(trifluoromethyl)-2,3-dihydropteridin-4(1H)-one] | 5.4
CCc1c(N2CN(c3ccc(=O)[nH]c3C)C(=O)c3cc(C(F)(F)F)ncc32)ccc(F)c1F [Example 10, 1-(2-Ethyl-3,4-difluorophenyl)-3-(2-methyl-6-oxo-1,6-dihydropyridin-3-yl)-6-(trifluoromethyl)-2,3-dihydropyrido[3,4-d]pyrimidin-4(1H)-one] | 7.5
Cc1[nH]c(=O)ccc1N1CN(c2ccc(F)cc2C(C)C)c2cnc(Cl)cc2C1=O [Example 3, 6-Chloro-1-(4-fluoro-2-isopropylphenyl)-3-(2-methyl-6-oxo-1,6-dihydropyridin-3-yl)-2,3-dihydropyrido[3,4-d]pyrimidin-4(1H)-one] | 7
Cc1cc(F)ccc1N1CN(c2ccc(=O)[nH]c2C)C(=O)c2nc(C(F)(F)F)cnc21 [Example 8, 1-(4-Fluoro-2-methylphenyl)-3-(2-methyl-6-oxo-1,6-dihydropyridin-3-yl)-6-(trifluoromethyl)-2,3-dihydropteridin-4(1H)-one] | 5.1
Cc1[nH]c(=O)ccc1N1CN(c2ccc(F)cc2C(C)C)c2ccc(Cl)nc2C1=O [Example 9, 6-Chloro-1-(4-fluoro-2-isopropylphenyl)-3-(2-methyl-6-oxo-1,6-dihydropyridin-3-yl)-2,3-dihydropyrido[3,2-d]pyrimidin-4(1H)-one] | 5.8
Cc1cc(F)ccc1N1CN(c2ccc(=O)[nH]c2C)C(=O)c2cc(Cl)ncc21 [Example 15, 6-Chloro-1-(4-fluoro-2-methylphenyl)-3-(2-methyl-6-oxo-1,6-dihydropyridin-3-yl)-2,3-dihydropyrido[3,4-d]pyrimidin-4(1H)-one] | 6.6
Cc1cc(OC(F)(F)F)ccc1N1CN(c2cc(F)c(=O)[nH]c2C)C(=O)c2cc(C(F)(F)F)ncc21 [Example 21, 3-(5-Fluoro-2-methyl-6-oxo-1,6-dihydropyridin-3-yl)-1-(2-methyl-4-(trifluoromethoxy)phenyl)-6-(trifluoromethyl)-2,3-dihydropyrido[3,4-d]pyrimidin-4(1H)-one] | 7.4
CCc1cc(F)ccc1N1CN(c2ccc(=O)[nH]c2C)C(=O)c2cc(C(F)(F)F)ncc21 [Example 14, 1-(2-Ethyl-4-fluorophenyl)-3-(2-methyl-6-oxo-1,6-dihydropyridin-3-yl)-6-(trifluoromethyl)-2,3-dihydropyrido[3,4-d]pyrimidin-4(1H)-one] | 7.1
Cc1cc(F)ccc1N1CN(c2ccc(=O)[nH]c2C)C(=O)c2cnc(C(F)(F)F)cc21 [Example 4, 1-(4-Fluoro-2-methylphenyl)-3-(2-methyl-6-oxo-1,6-dihydropyridin-3-yl)-7-(trifluoromethyl)-2,3-dihydropyrido[4,3-d]pyrimidin-4(1H)-one] | 6.8
Cc1cc(F)ccc1N1CN(c2ccc(=O)[nH]c2C)C(=O)c2cnc(C#N)cc21 [Example 19, 1-(4-Fluoro-2-methylphenyl)-3-(2-methyl-6-oxo-1,6-dihydropyridin-3-yl)-4-oxo-1,2,3,4-tetrahydropyrido[4,3-d]pyrimidine-7-carbonitrile] | 5.4
Cc1cc(F)ccc1N1CN(c2ccc(=O)[nH]c2C)C(=O)c2ccncc21 [Example 12, 1-(4-Fluoro-2-methylphenyl)-3-(2-methyl-6-oxo-1,6-dihydropyridin-3-yl)-2,3-dihydropyrido[3,4-d]pyrimidin-4(1H)-one] | 5.3
CCc1cc(F)ccc1N1CN(c2ccc(=O)[nH]c2C)C(=O)c2cnc(C(F)(F)F)cc21 [Example 20, 1-(2-Ethyl-4-fluorophenyl)-3-(2-methyl-6-oxo-1,6-dihydropyridin-3-yl)-7-(trifluoromethyl)-2,3-dihydropyrido[4,3-d]pyrimidin-4(1H)-one] | 7.1
Cc1[nH]c(=O)ccc1N1CN(c2ccc(F)c(F)c2C)c2cnc(C(F)(F)F)cc2C1=O [Example 17, 1-(3,4-Difluoro-2-methylphenyl)-3-(2-methyl-6-oxo-1,6-dihydropyridin-3-yl)-6-(trifluoromethyl)-2,3-dihydropyrido[3,4-d]pyrimidin-4(1H)-one] | 7.2
Cc1cc(F)ccc1N1CN(c2ccc(=O)[nH]c2C)C(=O)c2cnc(C(F)(F)F)nc21 [Example 2, 1-(4-Fluoro-2-methylphenyl)-3-(2-methyl-6-oxo-1,6-dihydropyridin-3-yl)-7-(trifluoromethyl)-2,3-dihydropyrimido[4,5-d]pyrimidin-4(1H)-one] | 6
